This note sets out measurements from US20120165403A1, “METHODS OF INHIBITING THE ACTIVITY OF HSP90 AND/OR ARYL HYDROCARBON RECEPTOR” (UNIVERSITY OF ROCHESTER, priority 2004, published 2012).

In one assay the test system is AhR. The assay can be described thus: AhR protein levels by western blotting in Hepa cells. It is filed as cell-based, mouse. The settings on record: over 12 hours. Here is the method: Hepa cells were plated onto 6-well plates at a density of 5×10^5 cells/well and incubated overnight at 37° C. […] Cells were lysed (0.2% Triton, 5 mM EDTA in PBS) and total protein quantified using the Coomassie Plus Protein Assay Reagent (Pierce, Rockford, Ill.). Protein (30 μg) was separated by SDS-PAGE (7.5% acrylamide resolving gel) and transferred to PVDF membrane (Millipore, Bedford, Mass.). Membranes were probed with antibodies recognizing CYP1A1 (Xenotech, Lenexa, Kans.), AhR (Biomol, Plymouth Meeting, Pa.) and actin (Sigma). The secondary IgG antibodies were coupled to horseradish peroxidase (Jackson Immuno Research, West Grove, Pa.). Both primary and secondary antibodies were used at a dilution of 1:5000 in TBST (50 mM Tris, 300 mM NaCl, 0.5% Tween 20, pH 7.5) containing 5% milk. Proteins were visualized by chemiluminescence (KPL, Gaithersburg, Md.).
A general note: In western blotting, separated proteins are transferred to a membrane and probed.

For another assay, the target named is T1, purified human hsp90 (Homo sapiens, UniProt P07900).
T1 construct: purchased Stressgen
Put plainly: Affinity chromatography on EGCG-conjugated Sepharose, purified hsp90. It is filed as binding. To be noted: purified hsp90 alone. Here is the method: EGCG was conjugated to cyanogen bromide (CNBr)-activated Sepharose (Sigma). EGCG (2.5 mg) was dissolved in 5004 coupling buffer (0.1M NaHCO3, 0.5M NaCl, pH 6.0). CNBr-activated Sepharose was swelled and washed in 1 mM HCl on a sintered glass filter followed by a wash with coupling buffer. CNBr-activated Sepharose beads were added to the EGCG in coupling buffer at a final concentration of 5 mg EGCG/ml of wet gel. The coupling solution containing EGCG and Sepharose was mixed end-over end at 4° C. overnight. Remaining active groups were blocked for 2 h at room temperature in Tris-HCl (0.1M, pH 8). EGCG-conjugated Sepharose was washed with three cycles of alternating pH wash buffers (Buffer 1: 0.1M acetate, 0.5M NaCl, pH4.0; Buffer 2: 0.1M Tris-HCl, 0.5M NaCl, pH 8.0). EGCG-conjugated beads were then equilibrated in binding buffer (0.05M Tris-HCl, 0.15M sodium chloride, pH 7.5). The control unconjugated CNBr-activated Sepharose beads were prepared as above in the absence of EGCG.
For affinity chromatography using histidine-purified XAP2 and purified human hsp90 (Stressgen), 30 μl of unconjugated or EGCG-conjugated Sepharose were incubated for 1 h at room temperature with either 1:4 diluted ^35S-XAP2 in RRL, 30 μl of histidine purified ^35S-XAP2, 0.6 μg of purified hsp90, or 20 μl of histidine purified ^35S-XAP2 in the presence of 0.6 μg of purified hsp90. […]

The next assay deals with chicken hsp90. The assay can be described thus: Affinity chromatography on EGCG-conjugated Sepharose, hsp90 point and truncation mutants. It is filed as binding. The source says: Murine AhR and ARNT cDNA (obtained from J. Whitlock and O. Hankinson, respectively) were inserted into pcDNA3 (Invitrogen, Carlsbad, Calif.). Chicken hsp90 constructs (FIG. 5), c90711hsp (wild-type), c90G94D (wild-type point mutant gly94→Asp (Grenert et al., J. Biol. Chem. 272:23843-23850 (1997), which is hereby incorporated by reference in its entirety), c90D92A (wild-type point mutant Asp92→Ala (Sullivan et al., J. Biol. Chem. 268:20373-20379 (1993), which is hereby incorporated by reference in its entirety), c90N221 (wild-type truncation mutant encoding a.a. 221-728 (Sullivan et al., J. Biol. Chem. 268:20373-20379 (1993), which is hereby incorporated by reference in its entirety)), c90N303 (a.a. 303-728) and c90N538 (a.a. 538-728) were kind gifts from Dr. D. Toft (Rochester, Minn.). The C-terminal truncation mutant c900507 (a.a. 1-221) was obtained from Dr. L. Neckers (Rockville, Md.) (Grenert et al., J. Biol. Chem. 272:23843-23850 (1997); Marcu et al., J. Biol. Chem. 275:37181-37186 (2000), which are hereby incorporated by reference in their entirety). Human p23 cDNA was excised from pQE80-p23 (obtained from W. Chan Stockton, Calif.) by sequential digests using the restriction enzymes Sad (3′-end) and BamHI (5′-end) and inserted into the similarly digested pET28a (Novagen, Madison, Wis.). The mouse histidine-tagged XAP2 construct, pET-AIP (Bell et al., J. Biol. Chem. 275:36407-36414 (2000), which is hereby incorporated by reference in its entirety), was a kind gift from Dr. D. Bell (Nottingham, UK). All constructs are in the T7 orientation with the exception of c900507, which is driven by an SP6 promoter.
AhR, ARNT, hsp90 (wild-type, point mutants, and truncation mutants), p23, and XAP2 were generated (separately) by coupled transcription/translation in rabbit reticulocyte lysate (RRL) using the TNT® system according to the manufacturer's protocol (Promega, Madison Wis.). In this system, ^35S-methionine was included in the transcription/translation mix to generate ^35S-labeled protein.
EGCG was conjugated to cyanogen bromide (CNBr)-activated Sepharose (Sigma). […]

Structures are written as SMILES.

With `O=C(O[C@@H]1Cc2c(O)cc(O)cc2O[C@@H]1c1cc(O)c(O)c(O)c1)c1cc(O)c(O)c(O)c1` [EGCG, epigallocatechin gallate], in the assay on AhR (200 μM EGCG with 150 pM TCDD), the “effect on the TCDD-induced decrease of AhR levels” value was “not exacerbated or prevented”. The “AhR protein levels, treatment alone” value in the assay on AhR (EGCG 200 μM or TCDD 150 pM) is on record as “not capable of inducing AhR degradation”. At purified human hsp90, the “binding of purified hsp90 to EGCG-Sepharose” value is “eluted specifically from EGCG-Sepharose”. In addition, the “binding of C-terminal hsp90 fragments” value with chicken hsp90 (all C-terminal fragments (N221, N303, N538)) was “bound EGCG”. Besides, in the assay with chicken hsp90 (compared with wild type hsp90), the “binding of N-terminal point mutants D92A, G94D to EGCG-Sepharose” value is reported as “bound to EGCG-Sepharose as well as or better than the wild type hsp90”. Moreover, the “binding of amino-terminal hsp90 fragment C507 to immobilized EGCG” value in the assay on chicken hsp90 (fragment containing the GA binding site) is listed as “failed to bind to immobilized EGCG”.
